Test results from EP3797781A1, “USE OF EC-7072 AND SYNERGIC COMPOSITIONS THEREOF IN TREATMENT OF CHRONIC LYMPHOCYTIC LEUKEMIA” (priority 2019, dated 2021).

Tests used:
[1] = test system: T cells and NK cells; assay: Intracellular staining of IFN-γ and perforin upon PMA/ionomycin stimulation; format: cell-based, human; conditions: 200 nM, 24 hours, PBMCs from patients with CLL (n = 4)
Method: PBMCs from patients with CLL were treated with 200 nM EC-7072 or DMSO for 24 hours and stimulated with PMA (50 ng/mL) and ionomycin (1 µg/mL) for 5 hours in the presence of GolgiPlug protein transport inhibitor (Beckton Dickinson). T cells and NK cells were then analyzed for intracellular levels of IFN-γ and perforin by flow cytometry.
The effect of EC-7072 toward healthy immune subsets, T lymphocytes and natural killer (NK) cells, which are chronically exposed to leukemia cells in the peripheral blood of patients with CLL was assessed by: • (i) incubating PBMCs isolated from patients with CLL (n = 10) following treatment with increasing concentrations of EC-7072 (0 - 400 nM) for 24 hours. Numbers of T cells (CD3^+CD56^-) (Figure 2A) and NK cells (CD3^-CD56^+) (Figure 2B) were evaluated by flow cytometry and normalized to their respective control (DMSO) condition for each individual patient to obtain percentage of relative number of T cells and NK cells, respectively; • (ii) incubating PBMCs isolated from patients with CLL (n = 6 - 10) following treatment with increasing concentrations of EC-7072 (0 - 400 nM) for 24 hours. […]

[2] = test system: isolated T cells from patients with CLL; assay: qPCR analysis of BCL2 expression in isolated T cells; format: cell-based, human; conditions: 200 nM, 6 hours; n = 3
Method: Isolated leukemia cells from patients with CLL were incubated with EC-7072 (200 nM) or DMSO for 6 hours. Total RNA was extracted using RNeasy Mini Kit (Qiagen). 2 µg total RNA were used for cDNA synthesis using High-Capacity cDNA Reverse Transcription Kit (Applied Biosystems). Quantitative RT-PCR was performed using SYBR Green PCR Master Mix (Applied Biosystems) in a 7300 Real-Time PCR System and each sample was analyzed in triplicate. Table 1. Primers used in qPCR
The dysregulation of BCL2 expression in primary CLL by EC-7072 was evaluated by: • (i) incubating isolated CLL cells (n = 6) from patients with CLL following treatment with EC-7072 (200 nM) for 6 hours and extracting total RNA. Relative expression of BLC2 was determined by qPCR to obtain the mean relative expression to the control (DMSO) condition (Figure 6F); • (ii) incubating isolated CLL cells (n = 6) following treatment with 200 nM EC-7072 for 12 and 18 hours. BCL2 levels were evaluated by intracellular flow cytometry (Figure 6G); • (iii) incubating isolated T cells (n = 3) from patients with CLL following treatment with EC-7072 (200 nM) for 6 hours and extracting total RNA. […] T-cell death and apoptosis were assessed by DiOC6(3)/PI staining to obtain percentages of viable [DiOC6(3)^+] cells and the mean percentages of apoptotic [DiOC6(3)^low PI^-] and dead [PI^+] cells.

CO[C@@H]([C@@H]1Cc2cc3cc(O[C@H]4C[C@@H](O[C@H]5C[C@@H](O)[C@H](O)[C@@H](C)O5)[C@H](O)[C@@H](C)O4)c(C)c(O)c3c(O)c2C(=O)[C@H]1O[C@H]1C[C@@H](O[C@H]2C[C@@H](O[C@H]3C[C@](C)(O)[C@H](O)[C@@H](C)O3)[C@@H](O)[C@@H](C)O2)[C@H](O)[C@@H](C)O1)[C@@H](O)C(C)=O [EC-7072, mithramycin SK]
production of interferon (IFN)-γ and perforin by T cells and NK cells [1]: not significantly altered | BCL2 expression in T cells [2]: not modulated
